Tested on: DRD2-expressing 293T cells vs untransduced 293T cells
Assay: Flow cytometry quantification of probe labeling of cells
Assay type: cell-based, human
Settings: probe 100 nm, photo-cross-linked, Alexa Fluor 555 azide; P < 0.0001, two-way ANOVA
Experimental: Flow cytometry was used to quantify the number of cells that were successfully labeled by probes 5 and 7 as these were the most promising biochemically and seemed to display the highest propensity for labeling DRD2-expressing cells. To perform the quantification, our 293T cell line-expressing DRD2 or unmodified 293T cells as a negative control were treated with probes at a 100 nm concentration, the lower concentration than the EC50 determination, likely due in large part to the covalent nature of the binding event versus the noncovalent EC50 assays. The probes were covalently cross-linked to the cells with UV, and the unbound probe was washed out. The azide-containing fluorescent dye was then clicked onto the probe, the unbound dye was washed out, and the cells were analyzed by flow cytometry (Figure 5a). […]
Figure 5 Flow cytometry quantification of probe labeling. […] The cells were then analyzed by flow cytometry. P values determined using two-way ANOVA in GraphPad; **** corresponds to P < 0.0001. […]
HEK293T cells and a stable HEK293T-derived cell line-expressing DRD2-Strep Tag II fusion were maintained in DMEM supplemented with 10% FBS, 100 U/mL penicillin, and 100 μg/mL streptomycin in a humidified atmosphere at 37 °C in 5% CO2. […] The cells were then washed 3 times with PBS with 5% BSA and analyzed with a BD Accuri C6 flow cytometer. […]

Compound | labeling of cells expressing DRD2 vs cells that do not (flow cytometry)
C#CCOc1ccc(C(=O)c2ccc(CNCCc3cccc4c3CC(=O)N4)cc2)cc1 [Compound 5, 4-(2-((4-(4-(Prop-2-yn-1-yloxy)benzoyl)benzyl)amino)ethyl)indolin-2-one] | highly statistically significant increase in the labeling of cells expressing DRD2 over those that do not
C#CCOc1ccc(C(=O)c2ccc(CN[C@H]3CCc4nc(N)sc4C3)cc2)cc1 [Compound 7, (S)-(4-(((2-Amino-4,5,6,7-tetrahydrobenzo[d]thiazol-6-yl)amino)methyl)phenyl)(4-(prop-2-yn-1-yloxy)phenyl)methanone] | highly statistically significant increase in the labeling of cells expressing DRD2 over those that do not
